Data taken from patent publication US20260325485A1, “COMPOSITIONS AND METHODS FOR TREATING PANCREATITIS” (The United States Government as represented by the …, priority 2022, published 2026).

How the values were obtained:
[1] = system: mouse acinar cells; experiment: Total cholesterol content of mouse acinar cells (ex vivo pancreatitis models or cholesterol chelator); type: cell-based; set-up: total cholesterol in acinar cells, physiologic doses: dose or concentration left out as unconfirmed; conditions: for cholesterol overload, mouse acinar cells: ex-vivo pancreatitis, 1 h, 100 nM CCK, 1 mM carbachol or 500 μM TLCS
Experimental: (§1) FIGS. 8A-8M show derangement of cholesterol metabolism in experimental pancreatitis. Characteristics of cholesterol metabolism were measured, as detailed in FIGS. 4A-4R, in pancreas of WT mice subjected to pancreatitis induced with cerulein (CER-AP), L-arginine (Arg-AP), or CDE diet (CDE-AP) (A, B, and E-G); ex vivo pancreatitis induced in WT mouse (C and I-M) or human acinar cells (D) with 100 nM CCK (CCK-AP) or 1 mM carbachol; and isolated pancreatic mitochondria (H). (B) Cholesterol ester (CE) heatmap; each column represents an individual mouse. (F) IB analysis of the indicated proteins. (G) LAL activity was measured by a fluorogenic assay (n=6 mice per condition). (H) Cholesterol content was measured by enzymatic assay. (I-M) Filipin colocalization with indicated proteins was quantified as detailed in FIGS. 2A-2L. Each symbol in A, C-E, and H represents an individual mouse, or cell or mitochondria preparation (n=3-15 per condition). Each symbol in J, K, and M corresponds to 20-30 cells in a different field (n=10-20 fields from 3 cell preparations per condition). Values are mean±SEM. *P<0.05, **P<0.01, ***P<0.001 vs. the same parameter in control/untreated pancreas, acinar cells or isolated mitochondria. Significance was determined by 2-tailed Student's t test (B, E, H, J, K, and M) or 1-way ANOVA followed by Tukey's multiple comparison test (A, C, and D). Scale bars: 10 μm.
(§2) Parameters of cholesterol metabolism were measured in (A, B, E, F) pancreas of mice subjected to pancreatitis induced with cerulean (CER-AP), L-arginine (Arg-AP), or combination of EtOH+palmitoleic acid (EtOH+POA); and (C) ex-vivo models on mouse and human acinar cells treated for 1 h with 100 nM CCK, […] or 500 μM TLCS. In (A), each column in CE heatmap represents an individual mouse. (B, C) Total cholesterol content was measured with cholesterol assay kit (Abcam, ab65390). […] Each symbol corresponds to 20-30 cells in each of 8 high-expression (qPCR) of proteins regulating cholesterol synthesis (4 mice/group). (B-D) Each symbol represents an individual animal or cell preparation. (A-D, F) Values are mean±SE (*p<0.05, **p<0.01, ***p<0.001 vs saline or control). Signficance was determined by 2-tailed student's t test.
(§3) Ex vivo pancreatitis models were performed on mouse and human acinar cells, and human pancreas slices by incubation with supramaximal CCK (100 nM) or carbachol (1 mM), as described previously (80, 81).
(§4) Total cholesterol content was measured with Cholesterol Assay kit per manufacturer's instructions. Samples of mouse pancreas and liver, cell pellet homogenates, subcellular fractions, isolated mitochondria, and serum were diluted in the reaction buffer containing cholesterol probe and incubated at 37° C. for 1 h in the dark. To measure total cholesterol, the samples were subjected to digestion with cholesterol esterase. To measure non-esterified cholesterol, the esterase was omitted from the assay.
Fluorescence intensity (for cholesterol) and absorbance (for TAG) were measured in a Tecan microplate reader. Each measurement was in duplicate, and the values were normalized per mg total protein in the sample.

[2] = system: human acinar cells; experiment: Total cholesterol content of human acinar cells (ex vivo pancreatitis models); type: cell-based; conditions: for cholesterol overload, human acinar cells: ex-vivo pancreatitis, 1 h, 100 nM CCK, 1 mM carbachol or 500 μM TLCS
Experimental: as §1, §2, §3
Human pancreas slices were obtained as in (12), from portions of live normal human pancreata from pre-terminal donors that were not used for transplantation and diverted to research (provided by Trillium Gift of Life Network, Toronto, Ontario, year 2020) or from normal portions of pancreatic cancer operations. Pancreas was cut into ~3×3×3 mm pieces and embedded with 37° C. low melting 3.8% agarose gel in extracellular solution containing (mM): 125 NaCl, 2.5 KCl, 1 MgCl2, 2 CaCl2, 1.25 NaH2PO4, 26 NaHCO3, 2 sodium pyruvate, 0.25 ascorbic acid, 3 myo-inositol, 6 lactic acid, and 7 glucose, and placed on ice to solidify the gel. The gelled tissue blocks were sliced with Vibratome into 120 μm-thick slices; slices were washed with the same extracellular solution, placed in 199 medium containing 0.1 mg/mL soybean trypsin inhibitor, and treated with CCK-8 (CCK) or carbachol for ex-vivo pancreatitis.
Total cholesterol content was measured with Cholesterol Assay kit per manufacturer's instructions. […]

[3] = target: T1, NPC1 (Mus musculus, UniProt O35604); experiment: Effects of NPC1 inhibitor U18666A on WT mouse pancreas; type: in vivo; conditions: 15 days
T1 sequence (O35604 23-1277): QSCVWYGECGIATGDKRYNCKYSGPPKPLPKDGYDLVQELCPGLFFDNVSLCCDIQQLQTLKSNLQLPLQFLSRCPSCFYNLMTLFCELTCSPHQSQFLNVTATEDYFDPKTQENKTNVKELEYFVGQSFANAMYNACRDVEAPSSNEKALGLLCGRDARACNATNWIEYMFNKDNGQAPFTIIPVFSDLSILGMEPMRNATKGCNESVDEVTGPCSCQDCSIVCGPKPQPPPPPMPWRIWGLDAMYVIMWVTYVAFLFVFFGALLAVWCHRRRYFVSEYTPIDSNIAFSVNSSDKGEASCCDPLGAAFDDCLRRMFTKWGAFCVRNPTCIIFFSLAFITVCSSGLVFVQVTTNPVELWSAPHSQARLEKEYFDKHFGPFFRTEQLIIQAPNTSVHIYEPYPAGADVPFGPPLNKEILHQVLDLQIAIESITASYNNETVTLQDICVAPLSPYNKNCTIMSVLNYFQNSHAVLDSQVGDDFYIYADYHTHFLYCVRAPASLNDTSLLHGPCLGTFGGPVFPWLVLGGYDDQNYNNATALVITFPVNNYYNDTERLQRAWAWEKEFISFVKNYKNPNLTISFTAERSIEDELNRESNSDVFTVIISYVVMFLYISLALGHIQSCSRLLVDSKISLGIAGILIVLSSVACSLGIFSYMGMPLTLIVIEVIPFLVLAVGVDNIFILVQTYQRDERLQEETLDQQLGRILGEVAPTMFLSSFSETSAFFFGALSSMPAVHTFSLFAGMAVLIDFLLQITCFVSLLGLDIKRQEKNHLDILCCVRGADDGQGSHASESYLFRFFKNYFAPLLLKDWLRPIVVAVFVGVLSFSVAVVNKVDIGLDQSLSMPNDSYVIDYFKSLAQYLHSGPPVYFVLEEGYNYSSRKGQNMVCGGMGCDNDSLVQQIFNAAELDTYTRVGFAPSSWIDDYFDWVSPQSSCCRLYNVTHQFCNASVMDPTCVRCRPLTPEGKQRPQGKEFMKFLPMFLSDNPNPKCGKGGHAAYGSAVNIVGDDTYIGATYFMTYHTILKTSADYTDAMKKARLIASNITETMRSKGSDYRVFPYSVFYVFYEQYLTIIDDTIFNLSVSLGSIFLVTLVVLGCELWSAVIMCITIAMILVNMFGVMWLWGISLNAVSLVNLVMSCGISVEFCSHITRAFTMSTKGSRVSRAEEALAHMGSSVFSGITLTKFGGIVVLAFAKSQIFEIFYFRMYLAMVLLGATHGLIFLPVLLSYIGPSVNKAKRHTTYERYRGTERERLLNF
Experimental: FIGS. 9A-9E show cerulein pancreatitis decreases pancreatic levels of GNPTAB and mediators of cholesterol trafficking through LE/Ly. (A, D, and E) IB analysis of the indicated proteins in pancreas of WT mice subjected to CER-AP and in Gnptab^−/− mice. NS, nonspecific band. (B and C) Cholesterol content was measured in pancreas of (B) WT mice that received daily i.p. injections of the NPC1 inhibitor U18666A (10 mg/kg) or vehicle for 15 days and (C) Lamp2^−/− mice. Each symbol in B, C, and E represents an individual mouse. Values are mean±SEM from 3 to 5 mice per condition. ***P<0.001 vs. the same parameter in WT control/untreated or saline-treated mice. Significance was determined by 2-tailed Student's t test (B and C) or 1-way ANOVA followed by Tukey's multiple comparison test (E).
(§5) FIGS. 10A-10N show deranged cholesterol metabolism causes acinar cell damage, while its normalization ameliorates experimental pancreatitis. (A-D) Cholesterol content and trypsin activity were measured (per mg protein) in WT mouse acinar cells incubated for 1 hour without and with methyl-β-cyclodextrin (MCD; 10 mM) or cholesterol-loaded MCD (MCD-Chol; 200 μg/mL), in the presence or absence of 100 nM CCK. Values are expressed relative to those in cells without MCD/MCD-Chol. (E-J) WT mice received daily i.p. injections of the LXR agonist T0901317 (T09), simvastatin (Sim; 20 mg/kg each), or vehicle. On day 4, mice were subjected to CER-AP and pancreata collected for analyses (see also FIG. 20). Cholesterol content (E), trypsin activity (F), and pancreas histopathology (H&E staining; G) were measured. (H, I, L, and N) IB analysis of markers/mediators of autophagy (LC3, p62), ER stress (CHOP, GRP-78), and mitophagy (Parkin). Ub, ubiquitylated proteins. (J) Mitochondrial fragmentation was assessed by immunostaining for Tom20, as detailed in FIG. 7G. (K and L) Mouse acinar cells were treated for 16 hours with LDL (30 μg/mL) or the combination of LDL and 10 μM U18666A. (M and N) Mice received injections of U18666A as detailed in FIG. 9B. Pancreas histopathology (H&E staining; M) and levels of autophagy markers/mediators (N) were measured. Each symbol in A-F and I represents an individual mouse or cell preparation. Values are mean±SEM from 3 to 7 mice or cell preparations per condition. ^§ P<0.05, ^§§ P<0.01 vs. control cells (without MCD/MCD-Chol). ***P<0.001 vs. saline-treated mice. ^#P<0.05, ^##P<0.01, ^###P<0.001 vs. CER-AP alone (no inhibitors). Significance was determined by 2-tailed Student's t test (A-D) or 1-way ANOVA followed by Tukey's multiple comparison test (E, F, and I). Scale bars: 10 μm.
viii. In Vivo Treatments of Mice
12-week-old WT mice were subjected for 4 consecutive days to daily i.p. injections of 20 mg/kg simvastatin (8,9) or 20 mg/kg T0901317 (10); or 10 mg/kg U18666A for 15 days (11). Control mice received vehicle injections. Some of the simvastatin- and T0901317-treated mice were subjected to CER-AP on day 4, as indicated in corresponding figures.
as §4
Pancreatitis responses were measured as previously described (1-7). Serum amylase and lipase were measured in a Hitachi 707 analyzer. Acinar cell vacuolization and necrosis were quantified on H&E stained pancreatic tissue sections; at least 1000 acinar cells/mouse were analyzed in several high-power fields. ATP was measured in tissue homogenates using bioluminescence assay (3-5).

[4] = target: T1, NPC1; experiment: Effects of U18666A with LDL on WT acinar cells; type: cell-based; conditions: LDL 30 μg/mL + 10 μM U18666A, 16 hours
Experimental: as §5
To examine the effect of disrupted cholesterol turnover, WT acinar cells were incubated with LDL-cholesterol in the presence and absence of the NPC1 inhibitor U18666A. U18666A caused cholesterol accumulation in LE/Ly (filipin staining; FIG. 10K), resulting in impaired autophagy (manifested by concomitant accumulation of LC3-II and ubiquitylated proteins) and increases in CHOP and Parkin (FIG. 10L).
Immunoblots were developed using enhanced chemiluminescence detection kit (Pierce), and band intensities were quantified by densitometry using FluorChem HD2 imaging system (Alpha Innotech/ProteinSimple).
Staining for neutral lipids and free cholesterol was performed by incubation of fixed-frozen tissue sections or fixed cells with, respectively, 2 μg/ml BODIPY493/503 for 45 min or 100 µg/ml filipin for 2 h at room temperature. For double labeling, BODIPY493/503 or filipin were applied after fixed-frozen tissue or cell sections incubated with primary and secondary antibodies.

[5] = supramaximal (100 nM) CCK-8 or carbachol, ex vivo AP

cholesterol content in WT mouse pancreas, U18666A ([3]; 10 mg/kg daily i.p.)	LC3-II in mouse pancreas ([3]; 10 mg/kg i.p. daily)	acinar cell vacuolization, mice ([3]; 10 mg/kg i.p. daily)	inflammation, mouse pancreas ([3]; 10 mg/kg i.p. daily)	p62 in mouse pancreas ([3]; 10 mg/kg i.p. daily)	ubiquitylated proteins in mouse pancreas ([3]; 10 mg/kg i.p. daily)	CHOP, acinar cells [4]	LC3-II (impaired autophagy), acinar cells [4]	Parkin, acinar cells [4]	cholesterol in LE/Ly (filipin staining) [4]	ubiquitylated proteins (impaired autophagy), acinar cells [4]	SMILES	cholesterol overload, mouse acinar cells [1]	cholesterol overload, human acinar cells [2]	necrosis, mouse pancreas ([3]; 10 mg/kg i.p. daily, up to ~) [%]	total cholesterol in acinar cells, physiologic doses ([1]; physiologic doses of CCK or carbachol)	cholesterol content, mouse acinar cells, supramaximal stimulation [1, 5]	cholesterol content, human acinar cells, supramaximal stimulation [2, 5]
											C[C@H](CCC(=O)NCCS(=O)(=O)O)[C@H]1CC[C@H]2[C@@H]3CC[C@@H]4C[C@H](OS(=O)(=O)O)CC[C@]4(C)[C@H]3CC[C@]12C [TLCS]	prominent	prominent				
elevated	accumulation	increased	inflammation	accumulation	accumulation	increases	accumulation	increases	accumulation	accumulation	CCN(CC)CCO[C@H]1CC[C@@]2(C)C(=CC[C@@H]3[C@@H]2CC[C@]2(C)C(=O)CC[C@@H]32)C1 [U18666A, 3-beta-[2-(diethylamino)ethoxy] androst-5-en-17-one]			≤ 20			
											C[N+](C)(C)CCOC(N)=O [carbachol]	prominent	prominent		did not alter	increased	increased
